Experimental data as given in patent publication US20240285627A1, “DRUG COMBINATION OF FAK INHIBITOR AND IMMUNOGENIC CELL DEATH INDUCER AND USE THEREOF” (INXMED (NANJING) CO., LTD., priority 2022, published 2024).

Columns and labels:
[1] = tested on: Mouse lung cancer KPL; test: Proliferation of KPL cells, CCK8, MRTX1133 with or without IN10018 (Example 5); format: cell-based; conditions: 72 hours, MRTX1133 alone
Experimental: Mouse lung cancer KPL (Insitute of Biochemistry and Cell Biology) were cultured with RPMI-1640 (Shanghai Basalmedia, classification number: L210KJ, batch number: F210916)+10% FBS (Gibco, classification number: 10099-141c, batch number: 2158737cp) and passaged twice. When the cells were in good condition, the culture solution was placed in a 96-well plate with 3000 cells/well. After the cells were spread for 24 hours, a culture medium containing MRTX1133 (SuperLan Chemical Co., Ltd., classification number: P2621928-55-8, batch number: 131005) was added. 10 drug action concentrations were set, wherein the first concentration was 30 μM, which was serially diluted 5 times, and the last concentration was a control with a drug concentration of 0. Each drug concentration was set in triplicate. At the same time, another group of cells was established with the same drug concentration as the above method. The difference was that 10 μM IN10018 was added to each well. The drugs were mixed and the mixture was cultured in a 5% CO2 incubator at 37° C. for 72 hours.
After 72 hours of drug action, the cells were observed under a microscope, and 10 μl of CCK8 detection reagent (Cellorlab, classification number: CX001M, batch number: 2571100) was added to each well. […] Then the plate was read with a microplate reader OD450 ([…]).

[2] = tested on: mouse colon cancer CT26 cells allograft tumor; test: In vivo anti-tumor efficacy, BALB/c mouse subcutaneous allograft tumor model of CT26 cells (Example 9)
Experimental: Mouse colorectal cancer cell CT26 (from Nanjing Kebai Biotechnology Co., Ltd., article number: CBP60043) was maintained and passaged by InxMed (Nanjing) Co., Ltd. Cells were cultured in monolayer in vitro, and the culture conditions were RPMI-1640 medium with 10% fetal bovine serum and 37° C. 5% CO2 incubator. Trypsin-EDTA was used for routine digestion and passage two or three times a week. When the cells were in exponential growth period and the saturation reached 80%-90%, the cells were collected, counted and inoculated.
0.1 mL of cell suspension containing 3×10^5 cells was subcutaneously inoculated on the right back of each mouse. When the tumor volume reached about ˜57 mm^3 (13th day after cell inoculation), mice were randomly divided into groups according to the tumor volume and administered.
The assay index was to investigate whether the tumor growth is inhibited, delayed or cured. The diameter of tumor was measured with vernier caliper, 2˜3 times a week. The formula for calculating the tumor volume is: V=0.5×a×b^2, where a and b represent the long and short diameters of the tumor respectively.
The anti-tumor effect of the compound was evaluated by TGI (%), which reflected the tumor growth inhibition rate. According to the tumor volume on the first day after grouping, the tumor growth inhibition rate TGI (%) was calculated according to the following formula: […]
Statistical analysis was based on the tumor volume at the end of the assay and analyzed by Prism Graphpad software. The comparison between multiple groups was analyzed by Two-way ANOVA and Fisher's LSD test. P<0.05 is considered to have significant difference.

[3] = tested on: KPL tumor; test: Anti-tumor efficacy in KPL model in C57BL/6 mice (Example 12); format: in vivo; conditions: MRTX133 5 mg/kg IP BID, ANTI MOUSE PD-1 10 mg/kg IP BIW, IN10018 25 mg/kg PO QD
Experimental: 45 female C57BL/6 mice, 6-8 weeks old and 19 to 25 g in weight, were used in this study. The mice, marked by ear coding, were kept in Individual Ventilation Cages at constant temperature (20-26° C.) and humidity (40%-70%) with 3 animals in each cage. Animals had free access to irradiation sterilized dry granule food (Keao Xieli (Tianjin) Feed Co., Ltd) and sterile drinking water during the entire study period.
KPL cells were maintained in vitro in RPMI-1640 medium supplemented with 10% FBS and 1% P.S. at 37° C. in an atmosphere of 5% CO2 in air. The tumor cells were routinely sub-cultured three times weekly. KPL cells growing in an exponential growth phase were resuspended in PBS and adjusted concentration to 2×10^6/mL for tumor injection.
Each mouse was injected subcutaneously at the right flank with 0.1 mL KPL cell suspension (0.2×10^6) for tumor development. When tumor reach around 60 mm^3 on the 7th day after cell injection, mice were randomly grouped according to tumor volume, followed by drug administration. The day of grouping was defined as day 0.
The major endpoint is to see if the tumor growth can be delay or mice can be cured. Tumor sizes were measured three times weekly in two dimensions using a caliper (No. 105688, sylvac Dantsin), and the volume was expressed in mm^3 using the formula: V=0.5×a×b^2 (a, long diameters; b, short diameters). The tumor sizes were then used for the calculations of T/C (%) values. T/C (%) was calculated using the formula: T/C (%)=(Ti−T0)/(Vi−V0)×100%, Ti was the average tumor volume of a treatment group on a given day, T0 was the average tumor volume of the treatment group on the first day of treatment, Vi was the average tumor volume of the vehicle control group on the same day with Ti, and V0 was the average tumor volume of the vehicle group on the first day of treatment.
TGI was calculated for each group using the formula: TGI (%)=100%-T/C (%).
Efficacy study was euthanized on D28 after treatment according to requirement, tumors were collected and photographed, tumor weight were recorded meanwhile. Tumors were selected from each group and stored in 10% Formalin for the following research.
Summary statistics, including mean and the standard error of the mean (SEM), are provided for the tumor volume of each group at each time point. Statistical analysis of difference in tumor volume and tumor weight versus Vehicle group were conducted on the data obtained at each time point. T-test was performed to compare tumor volume among groups. A value of p<0.05 was considered to be statistically significant.

SMILES: C#Cc1c(F)ccc2cc(O)cc(-c3ncc4c(N5CC6CCC(C5)N6)nc(OC[C@@]56CCCN5C[C@H](F)C6)nc4c3F)c12 [MRTX1133]
- IC50 [1]: 1760 nM
- Tumor volume on Day 0 ([2]; Day 0, at grouping, mean ± SD): 57.4 ± 10.8 mm^3
- TGI (%) ([2]; Day 14, MRTX1133 5 mg/kg IP QD, IN10018 25 mg/kg PO QD, TIGIT 3 mg/kg IP BIW): 63.2%
- Tumor volume on Day 14 ([2]; Day 14 after group administration, MRTX1133 5 mg/kg IP QD, IN10018 25 mg/kg PO QD, TIGIT 3 mg/kg IP BIW, mean ± SD): 1067.8±302.1 mm^3
- Tumor volume on Day 16 ([2]; Day 16 after group administration, MRTX1133 5 mg/kg IP QD, IN10018 25 mg/kg PO QD, TIGIT 3 mg/kg IP BIW, mean ± SD): 1672.1±548.1 mm^3
- T/C (%) ([3]; Day 3 after treatment): 15.72%
- TGI (%) ([3]; Day 3 after treatment): 84.28%
- T/C (%) ([3]; Day 7 after treatment): −50.80%
- TGI (%) ([3]; Day 7 after treatment): 150.80%
- T/C (%) ([3]; Day 10 after treatment): 2.69%
- TGI (%) ([3]; Day 10 after treatment): 97.31%
- T/C (%) ([3]; Day 14 after treatment): 30.94%
- TGI (%) ([3]; Day 14 after treatment): 69.06%
- T/C (%) ([3]; Day 17 after treatment): 56.17%
- TGI (%) ([3]; Day 17 after treatment): 43.83%
- T/C (%) ([3]; Day 21 after treatment): 58.22%
- TGI (%) ([3]; Day 21 after treatment): 41.78%
- T/C (%) ([3]; Day 24 after treatment): 61.87%
- TGI (%) ([3]; Day 24 after treatment): 38.13%
- T/C (%) ([3]; Day 28 after treatment): 71.43%
- TGI (%) ([3]; Day 28 after treatment): 28.57%
- tumor volume ([3]; day 28): 579.34 mm^3
